Source: ChEMBL document CHEMBL1221343, “Caelestines A-D, brominated quinolinecarboxylic acids from the Australian ascidian Aplidium caelestis” (J Nat Prod, 2010)
Calls of active or inactive are those of the source. The rule behind the calls is not given here.

Assays:
[1] = tested on: MCF7; test: Cytotoxicity against human MCF7 cells at 100 uM; format: functional
[2] = tested on: MM96L; test: Cytotoxicity against human MM96L cells at 100 uM; format: functional
[3] = Cytotoxicity against human NFF cells at 100 uM; format: cell-based; conditions: read-out: INH
[4] = tested on: Staphylococcus aureus; test: Antimicrobial activity against multidrug-resistant Staphylococcus aureus ATCC 43300 at 0.1 to 10 mM after 20 hrs by CLSI broth microdilution method; format: functional, organism-based
[5] = tested on: Staphylococcus aureus; test: Antimicrobial activity against methicillin-sensitive Staphylococcus aureus ATCC 25923 at 0.1 to 10 mM after 20 hrs by CLSI broth microdilution method; format: functional, organism-based
[6] = tested on: Escherichia coli; test: Antimicrobial activity against Escherichia coli ATCC 25922 at 0.1 to 10 mM after 20 hrs by CLSI broth microdilution method; format: functional, organism-based
[7] = tested on: Enterococcus faecalis; test: Antimicrobial activity against Enterococcus faecalis ATCC 19433 at 0.1 to 10 mM after 20 hrs by CLSI broth microdilution method; format: functional, organism-based
[8] = tested on: Pseudomonas aeruginosa; test: Antimicrobial activity against Pseudomonas aeruginosa NCTC 10662 at 0.1 to 10 mM after 20 hrs by CLSI broth microdilution method; format: functional, organism-based
[9] = tested on: Candida albicans; test: Antimicrobial activity against Candida albicans ATCC 10231 at 0.1 to 10 mM after 20 hrs by CLSI broth microdilution method; format: functional, organism-based

SMILES | inhibition at 100 µM [1] | inhibition at 100 µM [2] | cytotoxicity at 100 µM [3] | Activity [4] | Activity [5] | Activity [6] | Activity [7] | Activity [8] | Activity [9]
COc1cc(Br)cc2c(=O)cc(C(=O)O)[nH]c12 | 40% | 54% | 58% | inactive | inactive | inactive | inactive | inactive | inactive
COc1c(Br)c(Br)cc2c(=O)cc(C(=O)O)[nH]c12 | 38% | 52% | 68% | inactive | inactive | inactive | inactive | inactive | inactive
O=C(O)c1cc(O)c2ccc(Br)cc2n1 | 39% | 62% | 57% | inactive | inactive | inactive | inactive | inactive | inactive
O=C(O)c1cc(=O)c2cc(Br)c(Br)cc2[nH]1 | 49% | 69% | 66% | inactive | inactive | inactive | inactive | inactive | inactive
